Results reported in patent publication US20200405793A1, “USE OF […] PATHWAY INHIBITOR AND […] PREPARING ANTI-TUMOR DRUG” (GUANGZHOU VIROTECH PHARMACEUTICAL CO., LTD., priority 2017, published 2020).
Entries after “also recorded” stand apart in the source; their conditions may differ.

How the values were obtained:
alphavirus M1 = assay: Mevalonate pathway inhibiting compounds acting on tumor cells with M1 virus: virus replication; format: cell-based
[1] = tested on: HCT-116 or SW 1990 transplanted tumors; assay: Growth of subcutaneous transplanted tumors in nude mice; format: in vivo, BALB/c nude mice; conditions: Tipifarnib 500 μg/kg/d i.p.; M1 2×10^9 PFU/kg/d tail vein; 6 consecutive injections; vs control group; both tumor models
Experimental: This experiment used a randomized, single-blind design. 5×10^6 HCT-116 or SW 1990 cells were injected subcutaneously into the dorsal flank of the 4 week old BALB/c nude mouse.
When the tumor size reached 50 mm3, the mice were divided into […], including untreated control group, Tipifarnib alone group (500 μg/kg/d by intraperitoneal injection), M1 infection alone group (2×10^9 PFU/kg/d by tail vein injection of M1 virus) and Tipifarnib/M1 combined group (same dose of Tipifarnib and M1 virus), and treated with 6 consecutive injections. The length, width and weight of the tumor were measured every two days, and the volume of the tumor was measured according to the formula (length×width^2)/2. One way ANOVA was performed after measuring tumor volume, ***indicates p<0.001.

SW1990 cells = assay: MTT cell viability, Tipifarnib and M1 virus; format: cell-based, human; conditions: Tipifarnib 50 nM, M1 virus MOI=1, 48 h
Text: (§1) Each group of experiments was repeated 3 times.

HCT-116 cells [2] = assay: MTT cell viability, Tipifarnib and M1 virus; format: cell-based, human; conditions: Tipifarnib 50 nM, M1 virus MOI=1, 48 h
Text: as §1

HCT-116 cells [3] = assay: Cell morphology after fluvastatin and M1 virus treatment; format: cell-based, human; conditions: fluvastatin 2 μM, M1 virus MOI=1, 48 hours
Experimental: (§2) a) Cell culture: human intestinal cell carcinoma strain HCT-116 was grown in a DMEM complete medium containing 10% FBS, 100 U/ml penicillin and 0.1 mg/ml streptomycin; all cell strains were cultured in a constant temperature closed incubator at 5% CO2, 37° C. (95% RH) and observed by the inverted microscope. Cells were passaged once for approximately 2-3 days and the cells in logarithmic growth phase were used for formal experiments.
c) Cells were inoculated into a 24-well plate at 30,000 cells/well; after the cells were treated with fluvastatin 2 (μM), they were infected with M1 virus (MOI=1); and the changes of cell morphology were observed under the inverted phase contrast microscope after 48 hours.

[4] = tested on: M1 viral proteins (structural protein E1 and non-structural protein NS3); assay: Immunoblot of M1 viral proteins after statin treatment of M1-infected HCT-116 cells; format: cell-based, M1 virus; conditions: concentration not given
Experimental: as §2
Cells were infected with M1 virus (MOI=1), treated with M1 virus (MOI=1) combined with fluvastatin or atorvastatin (1 and 10 μM), and cellular proteins were harvested after 24 hours and immunoblotted.

[5] = tested on: M1 virus structural protein E1 and nonstructural protein NS3; assay: Immunoblot of M1 viral proteins after siRNA interference of mevalonate pathway genes; format: cell-based; conditions: HCT-116; siRNA HMGCR, SQLE, FNTB, PGGT1B, RABGGTB 25, 25, 4, 20, 20 nM; M1 1 MOI; 24 hours
Experimental: (§3) The cells were inoculated into a 35 mm culture dish, cultured until the confluence degree of the cells reaches 60% and subjected to the following interference treatment: firstly, a Lipofectamine RNAiMAX solution was prepared with Opti-MEM by diluting according to 2 μL: 198 μL per culture dish and uniformly mixing; secondly, an siRNA solution was prepared with Opti-MEM by diluting according to 1.8 μL: 198 μL per culture dish, wherein the final concentration of siRNA interfering HMGCR, SQLE, FNTB, PGGT 1B and RABGGTB (specifically see FIG. 9 and the description of the Figures) were 25, 25, 4, 20 and 20 nM respectively, and mixing gently; finally, the diluted Lipofectamine RNAiMAX and siRNA were mixed, and stood for 15 minutes at room temperature; the mixed solution was added into a culture dish containing 1.5 mL of serum-free culture medium; and the medium was changed to a complete medium after 24 hours, and infected with M1 virus (1MOI). Cell lysates were collected after 24 hours and immunoblotted.

[6] = tested on: HCT-116, Capan-1 and SW 1990 cells; assay: Cell morphology under inverted phase contrast microscope after siRNA interference of HMGCR and M1 virus infection; format: cell-based, human; conditions: HCT-116, Capan-1, SW 1990; siRNA 25 nM; M1 virus 1 MOI; 48 h after infection
Experimental: as §3, with “was 25 nM,” for “interfering HMGCR, SQLE, FNTB, PGGT 1B and RABGGTB (specifically see FIG. 9 and the description of the Figures) were 25, 25, 4, 20 and 20 nM respectively,”, “The changes in cell morphology” for “Cell lysates”, “observed” for “collected”, “48 h under the inverted phase contrast microscope.” for “24 hours and immunoblotted.”

Compound	replication of the alphavirus M1 (alphavirus M1)	expression of M1 virus protein [4]	further results
COC(=O)[C@H](CCSC)NC(=O)c1ccc(NC[C@@H](N)CS)cc1-c1ccccc1.O=C(O)C(F)(F)F [FTI277]	promote replication of the alphavirus Ml		
Cn1cncc1[C@@](N)(c1ccc(Cl)cc1)c1ccc2c(c1)c(-c1cccc(Cl)c1)cc(=O)n2C [Tipifarnib]	promote replication of the alphavirus Ml		tumor volume [1]: only a slight reduction in tumor volume; tumor cell survival rate (SW1990 cells): 90%; tumor cell survival rate (HCT-116 cells [2]): 80%
CC(C)n1c(/C=C/[C@@H](O)C[C@@H](O)CC(=O)[O-])c(-c2ccc(F)cc2)c2ccccc21.[Na+] [fluvastatin]	promote replication of the alphavirus Ml	significantly increase the protein expression of M1 virus; also recorded: promote the expression of M1 virus protein	changes of cell morphology (HCT-116 cells [3]): induced lesions in a small number of cells
AACCCAAUGCCCAUGUUCCdTdT (as printed in the source, key not given here) [siRNA targeting HMGCR, siRNA interfering the HMG-CoA reductase gene (HMGCR)]			expression of structural protein E1 and nonstructural protein NS3 of the virus [5]: increased significantly; also recorded: significantly increase the protein expression of M1 virus; changes in cell morphology [6]: did not affect the morphology of tumor cells
atorvastatin	promote replication of the alphavirus Ml	significantly increase the protein expression of M1 virus; also recorded: promote the expression of M1 virus protein	
